Columns and labels:
[1] = test system: MDA-MB-468 xenograft tumors; test: RNAseq of treated MDA-MB-468 xenograft tumors; assay type: in vivo, NSG mice; conditions: single 3 mg/kg dose; compared to vehicle control
Procedure: (§1) Specifically, female NSG mice were implanted with 1×10^6 MDA-MB-468 cells in 25% Matrigel H C subcutaneously. Once tumor volumes reached ˜250-300 mm^3, mice were randomized into treatment groups of 6 mice each and treated with a single 3 mg/kg dose of ADC or mAb, or vehicle control (20 mM Histidine buffer, pH 6.0) injected intraperitoneally (i.p.). Stock concentrations of ADC were diluted to desired concentration with 20 mM Histidine buffer, pH 6.0 or and stock concentration of mAb were diluted to desired concentration with 0.01% Tween20 in PBS. Twenty-four hours prior to dosing, each animal was treated with 10 mg/kg hIVIG. One week following treatment, tumors were harvested, cut in half, and processed for RNAseq (frozen at −80° C.) or formalin-fixed and paraffin-embedded for immunohistochemical (IHC) analysis.
For RNAseq, RNA was extracted from tumors and library preparation for […] sequencing was performed using PolyA selection. RNA was sequenced using the Illumina HiSeq platform 2×150 bp configuration. […] Adaptors were trimmed using cutadapt version 1.16, reads were aligned to a composite (GRCh38(h38)/GRCm38(mm10)) genome using STAR version 2.5.2. Transcripts and genes were quantitated via RSEM version 1.2.31. Quantitative and statistical differences were determined between groups of samples using DESeq2 version 1.28.1. […]

hFcγRIIb = biological target: T1, hFcγRIIb (Homo sapiens, UniProt P31994); test: BLI binding to human Fc receptors; conditions: low data quality
T1 construct: made in house
T1 sequence (P31994 43-310): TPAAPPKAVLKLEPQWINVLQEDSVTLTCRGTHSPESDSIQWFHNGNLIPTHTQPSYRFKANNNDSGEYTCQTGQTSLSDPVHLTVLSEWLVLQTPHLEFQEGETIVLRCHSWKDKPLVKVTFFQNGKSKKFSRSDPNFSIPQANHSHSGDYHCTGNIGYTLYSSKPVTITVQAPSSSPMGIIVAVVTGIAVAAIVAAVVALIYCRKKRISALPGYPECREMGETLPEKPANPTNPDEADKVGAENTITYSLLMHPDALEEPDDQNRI

SKBR3 = test: ADCP with primary monocytes/macrophages; assay type: cell-based, human; conditions: 2 independent donors
Procedure: The B7-H4-expressing cell line SKBR3 and primary monocytes/macrophages were used to evaluate SGN-B7H4V-mediated ADCP. […] Phagocytosis of opsonized cells was assessed by flow cytometry.
SKBR3 tumor cells were fluorescently labeled with PKH26 (PKH26 Red Fluorescent Cell Membrane Labeling Kit, Sigma-Aldrich #PKH26GL-1KT), according to manufacturer instructions: SKBR3 cells were harvested with Versene (Gibco #15040-066) for 10 minutes and washed once with PBS. Cell were resuspended in 1 mL Diluent C (included in the PKH26 Red Fluorescent Cell Membrane Labeling Kit, Sigma-Aldrich #PKH26GL-1KT). In a separate tube, 1 mL Diluent C was mixed with 4 μL PKH26 dye by pipetting up and down. The dye solution was transferred to resuspended cells, quickly mixed by pipetting up and down several times, and incubated at room temperature for 5 minutes. Labeling reaction was stopped by adding 2 mL FBS (0.05-0.2 EU/ml Endotoxin, R&D Systems #S11550H). Cells were then washed once with RPMI 1640 (Gibco #11875-093) containing 10% FBS. Cells were resuspended in PBS at concentration of 0.8×10^6 cells/mL and transferred (300 μL/well) to a 96-well U-bottom plate (Falcon #353227). […] Phagocytosis is reported as the PKH26 geometric mean fluorescence intensity (gMFI) of gated CD14+/CD45+ cells analyzed using Flowjo. […]

[2] = test system: MDA-MB-468 xenograft tumors; test: MDA-MB-468 xenograft, single dose, tumor volume; assay type: in vivo, NSG mice; conditions: single 3 mg/kg dose, i.p.
Procedure: Tumors were harvested 7 days after treatment, cut in half, and processed for RNA-seq or IHC. […]
as §1

SGN-B7H4V: ADC of fully human IgG1 anti-B7-H4 mAb conjugated to monomethyl auristatin E (MMAE) via a protease-cleavable valine-citrulline linker (vedotin)
upregulation of human transcripts encoding cytokines (CXCL10 and CXCL1) [1]: 2-3 fold | affinity (hFcγRIIb): weakest affinity | ADCP activity (SKBR3): ADCP activity above that seen with the positive control | tumor volume [2]: reduction in tumor volume
